Measured values reported in US20160051514A1, “METHODS FOR TREATMENT OF CARDIOMYOPATHY” (THE BRIGHAM AND WOMEN'S HOSPITAL, INC., priority 2013, published 2016).
“Also recorded” adds a separate entry of the source.

What was measured:
[1] = system: mutant desmoglein-2 (Dsg2) knock-in mice; test: Mouse model of AC: mutant desmoglein-2 (Dsg2) knock-in; format: in vivo; details: daily injections for 13 weeks
Protocol: (§1) 2 different mouse models of AC were studied: a transgenic line with cardiac myocyte-specific expression of 2057del2 plakoglobin (Plk) and a mutant desmoglein-2 (Dsg2) knock-in model. ECG telemetry and echocardiographic analyses were performed in mutant and wildtype mice treated with daily injections of SB216763 or vehicle for 6 (2057del2 Plk) or 13 (Dsg2) weeks. Hearts excised at selected time points were analyzed for histology, apoptosis and distribution of key intercalated disk proteins.

[2] = system: nppb::luciferase reporter; test: nppb::luciferase reporter chemical screen in 2057del2 plakoglobin zebrafish embryos; format: in vivo; details: 72 hpf, 3 μM in the well between 48 and 72 hpf
Protocol: Chemical screening: Chemicals were dissolved in DMSO (Sigma-Aldrich, St. Louis, Mo., USA). Embryos (double homozygous for the 2057del2 plakoglobin mutation and the nppb::luciferase reporter) were arrayed in 96 well plates in HEPES-buffered E3 medium and small molecules were pin-transferred (200 n1) from arrayed chemical libraries. Positive (untreated wild type nppb::luciferase embryos) and negative controls (untreated 2057del2 plakoglobin/nppb::luciferase fish) were included in each plate. […] Each set of compounds was tested in duplicate to improve the discriminatory power of the assay. After being evaluated for viability, an equal volume of long half-life luciferase reagent (Promega Steady Glo™) was added to each well. The plate was then incubated in the dark for 60 min and activities were measured with a Victor 3™ luminometer (Perkin-Elmer). Each measurement was performed in duplicate and results were normalized to the number of fish in the well. Follow-up chemical treatments were performed in HEPES-buffered E3 medium in petri dishes.

[3] = system: neonatal rat ventricular myocytes expressing 2057del2 plakoglobin; test: INa and IK1 current density in neonatal rat ventricular myocytes; format: cell-based
Protocol: INa activation and inactivation were measured by whole-cell voltage-clamp according to standard protocols (32,33). Cells were held at a membrane potential of −80 mV after which pulses between −120 and +50 mV were applied in 5 mV steps each with a duration of 250 ms. Inactivation was measured from membrane potentials between −120 mV and +50 mV at maximal activation (26,33). In view of the small size of zebrafish myocytes (cell capacitance of 6.7±2.6pF; n=47) it was not necessary to reduce extracellular [Na+] to achieve voltage control; extracellular [Na+] was reduced to 50 mM in studies of neonatal rat ventricular myocytes Access resistance of the patch electrodes was <7 MΩ. Measurements showing incomplete control of membrane potential were eliminated from analysis. The chemical composition of the external and pipette solutions is described in supplemental information.
The inward rectifier current IK1 was measured using the protocol described by Dobrev et al. and Nemtsas et al. (34,35). Ramp clamps of 1400 ms duration were applied between −120 and +20 mV. After each clamp, external solution containing Ba2+(1 mM) was applied via a large pore pipette placed adjacent to the clamped cell. IK1 was defined as the total current minus the Ba2+-insensitive current (33). Subtraction of the two currents was performed using a MatLab script. […]

[4] = system: 2057del2 plakoglobin (Plk) transgenic mice; test: Mouse model of AC: transgenic cardiac myocyte-specific 2057del2 plakoglobin (Plk); format: in vivo; details: daily injections for 6 weeks
Protocol: as §1

[5] = system: neonatal rat ventricular myocytes expressing 2057del2 plakoglobin; test: Cytokine expression in conditioned culture media; format: cell-based; details: transfected cells
Protocol: (§2) Cytokine expression: Conditioned culture media (after 24 or 48 hr) from control cells and cells expressing 2057del2-plakoglobin in the presence or absence of SB216763 (5 μM, 24 hr) were collected, mixed with a cocktail of biotinylated detection antibodies and incubated with nitro-cellulose membranes spotted in duplicate with control and capture antibodies (R&D Systems). Chemiluminescent signal produced at each spot corresponded to the amount of cytokine bound. Conditioned media from control, un-transfected cultures were assayed for cytokine expression for control purposes.
as §2, with “from” for “from control cells and”, “2057del2 plakoglobin” for “2057del2-plakoglobin”, “non-transfected” for “control, un-transfected”, “as controls.” for “for control purposes.”

## Cn1cc(C2=C(c3ccc(Cl)cc3Cl)C(=O)NC2=O)c2ccccc21 [SB216763]
[1]
  QRS duration: 17.1 ± 2.7 ms
  Redistribution of junctional signals for Plk, Cx43 and SAP97, and myocardial apoptosis: normalized
[1]; echocardiography
  Ejection fraction (EF): 73.9±6.9%
  Fractional shortening (FS): 50.2±6.6%
[2]
  nppb expression / nppb::luciferase activity: normalizer of the nppb response; also recorded: reduced nppb expression
[2]; listed as SB2
  nppb expression / nppb::luciferase activity: reduced nppb expression
[2]; listed as SB216736
  nppb expression / nppb::luciferase activity: normalized nppb::luciferase activity
[3]
  Reduced INa and IK1 current densities in cells expressing mutant plakoglobin: normalized the reduced current densities
[4]
  Myocyte necrosis, fibrosis and inflammation: nearly absent
  Redistribution of junctional signals for Plk, Cx43 and SAP97, and myocardial apoptosis: normalized
[4]; ECG telemetry
  PVCs: 2.8 ± 0.6 min⁻¹
[5]; 5 μM, 48 hr
  Cytokine levels in culture medium, 48 hr exposure: clear reduction in cytokine levels; also recorded: restored the cytokine profile to control levels
[5]; 24 hr
  Cytokine profile in culture medium, 24 hr exposure: no apparent effect on cytokines; also recorded: had no apparent effect on the cytokine profile
